Results on 45 molecules are retold here after US5089623A, “Certain imidate insecticides” (Imperial Chemical Industries Plc, priority 1990, dated 1992).

What all share (format): in vivo
For test [1], the system named is Housefly [Musca domestica]. Put plainly: Housefly insecticidal test (HF). As to conditions: per 25 female houseflies, 48 hours.
Procedure: Test compounds were diluted in acetone and aliquots pipetted onto the bottom of aluminum dishes. To ensure even spreading of the chemical on the bottom of the dishes, 1 ml of acetone containing 0.01% peanut oil was also added to each dish. After all solvents had evaporated, the dishes were placed in circular cardboard cages containing 25 female houseflies, 1-2 days old. The cages were covered on the bottom with cellophane and on the top with tulle netting, and each contained a sugar-water saturated cotton plug for maintenance of the flies. Mortality was recorded after 48 hours. Test levels ranged from 100μg/25 female houseflies downward.
Test [2] has as its system Tobacco Budworm [Heliothis virescens (Fabricius)] eggs. The test can be described thus: Tobacco budworm egg test (TBW-E). The settings on record: percent in solution.
Source text: Eggs: Paper towel patches of 2-day old eggs of the tobacco budworm were dipped in acetone solutions of the test compound and placed in petri dishes containing a portion of larval rearing medium. […] Test concentrations ranged from 0.1% downward.
In test [3] the test system is Cabbage Looper [Trichoplusia ni (Hubner)]. The test can be described thus: Cabbage looper test (CL). As to conditions: second-instar larvae, 3-5 days, percent in solution.

As for `Cc1ccc(N=C(OCc2cccc(Oc3ccccc3)c2)C(C)C)c(Cl)c1` [Compound 94], the “LC50 HF” value in test [1] was found to be 44 µg. For the same molecule, the “LC50 TBW E” value in test [2] came to 0.075%. In test [3], the “LC50 CL” value was 0.0045%.
As for `CCC(CC)C(=Nc1cccc(C(F)(F)F)c1)OCc1cccc(Oc2ccc(F)cc2)c1` [Compound 291], the “LC50 HF” value in test [1] is greater than 100 µg. The “LC50 TBW E” value in test [2] is reported as greater than 0.1%. The “LC50 CL” value in test [3] amounted to 0.004%.
For `CC(C)C(=Nc1cc(C(F)(F)F)cc(C(F)(F)F)c1)OCc1cccc(Oc2ccccc2)c1` [Compound 78] the same measures were greater than 100 µg, greater than 0.1% and 0.0025%.
For `CCOC(=O)c1cccc(N=C(OCc2cccc(Oc3ccccc3)c2)C(C)(C)C)c1` [Compound 168], in that order: greater than 100 µg, greater than 0.1% and 0.1%.
Turning to `CCCCc1ccc(N=C(OCc2cccc(Oc3ccccc3)c2)C(C)C)cc1` [Compound 152], in test [1], the “LC50 HF” value was greater than 100 µg. In addition, the “LC50 TBW E” value in test [2] is greater than 0.1%. For the same molecule, the “LC50 CL” value in test [3] is listed as 0.009%.
For `CC(C)C(=Nc1ccc(F)cc1)OCc1cccc(Oc2ccc(F)cc2)c1` [Compound 197] the same measures were greater than 100 µg, 0.05% and 0.0004%.
Consider `CC(C)C(=Nc1cccc(C#N)c1)OCc1cccc(Oc2ccccc2)c1` [Compound 126], for which the “LC50 HF” value in test [1] is greater than 100 µg. Besides, the “LC50 TBW E” value in test [2] is on record as greater than 0.1%. For the same molecule, in test [3], the “LC50 CL” value is given as 0.08%.
For `CC(C)C(=Nc1ccc(F)c(F)c1)OCc1cccc(Oc2ccc(Br)cc2)c1` [Compound 275] the same measures were 21 µg, 0.045% and 0.00012%.
For `CC(C)C(=Nc1ccc(Cl)c(Cl)c1)OCc1cccc(Oc2ccc(F)c(F)c2)c1` [Compound 218] the same measures were 25 µg, 0.025% and 0.0003%.
For `CC(C)C(=Nc1cccc(Br)c1)OCc1cccc(Oc2ccc(F)cc2)c1` [Compound 229] the same measures were 20 µg, greater than 0.1% and 0.0005%.
Regarding `CC(C)C(=Nc1ccc(C(C)(C)C)cc1)OCc1cccc(Oc2ccc(F)cc2)c1` [Compound 235], the “LC50 HF” value in test [1] is greater than 100 µg. For the same molecule, the “LC50 TBW E” value in test [2] is recorded as greater than 0.1%. Further, the “LC50 CL” value in test [3] came out at 0.004%.
For `CC(C)C(=Nc1ccc(Cl)cc1Cl)OCc1cccc(Oc2ccc(F)cc2)c1` [Compound 312] the same measures were greater than 100 µg, greater than 0.1% and 0.006%.
With `CC(C)CC(=Nc1ccc(C(C)C)cc1)OCc1cccc(Oc2ccc(F)cc2)c1` [Compound 329], the “LC50 HF” value in test [1] came out at 7 µg. In test [2], the “LC50 TBW E” value is recorded as greater than 0.1%. Also, the “LC50 CL” value in test [3] is recorded as 0.033%.
For the molecule `CC(C)C(=Nc1ccc(C(C)(C)C)c(Cl)c1)OCc1cccc(Oc2ccc(F)cc2)c1` [Compound 308], the “LC50 HF” value in test [1] is greater than 100 µg. Also, in test [2], the “LC50 TBW E” value is on record as greater than 0.1%. The “LC50 CL” value in test [3] is 0.009%.
For `CC(C)C(=Nc1ccc(Cl)c(Cl)c1)OCc1cccc(Oc2cccc(Cl)c2)c1` [Compound 207], in that order: greater than 100 µg, greater than 0.1% and 0.008%.
For `CCSc1ccc(N=C(OCc2cccc(Oc3ccccc3)c2)C(C)C)cc1Cl` [Compound 103] the same measures were greater than 100 µg, greater than 0.1% and 0.015%.
`CC(C)C(=Nc1ccc(F)c(Cl)c1)OCc1cccc(OCc2ccccc2)c1` [Compound 472]: in test [1], the “LC50 HF” value is greater than 100 µg. The “LC50 TBW E” value in test [2] was greater than 0.1%. Also, in test [3], the “LC50 CL” value is recorded as 0.0025%.
For `CC(C)C(=Nc1ccc(F)c(Cl)c1)OCc1ccc(F)c(Br)c1` [Compound 473] the same measures were greater than 100 µg, greater than 0.1% and 0.025%.
For `CCC(C)C(=Nc1ccc(C(C)C)cc1)OCc1cccc(Oc2ccccc2)c1` (centres unmarked) [Compound 317], in that order: greater than 100 µg, 0.03% and 0.0045%.
Regarding `COc1ccc(C)cc1N=C(OCc1cccc(Oc2ccccc2)c1)C(C)C` [Compound 150], in test [1], the “LC50 HF” value worked out at 89 µg. For the same molecule, in test [2], the “LC50 TBW E” value is greater than 0.1%. In test [3], the “LC50 CL” value amounted to 0.01%.
For `Cc1cc(Br)ccc1N=C(OCc1cccc(Oc2ccccc2)c1)C(C)C` [Compound 133], in that order: 66 µg, 0.1% and 0.005%.
For `CC(C)C(=Nc1c(Cl)cc(Cl)cc1Cl)OCc1cccc(Oc2ccccc2)c1` [Compound 19], in that order: greater than 100 µg, greater than 0.1% and less than 0.1%.
Consider `CCC(=Nc1ccc(F)cc1F)OCc1cccc(Oc2ccccc2)c1` [Compound 59], for which the “LC50 HF” value in test [1] is 25 µg. In test [2], the “LC50 TBW E” value was greater than 0.1%. Further, the “LC50 CL” value in test [3] came out at 0.02%.
Take `CCC(=Nc1ccc(Cl)c(Cl)c1)OCc1cccc(Oc2ccccc2)c1` [Compound 36]: in test [1], the “LC50 HF” value worked out at 20 µg. In addition, the “LC50 TBW E” value in test [2] is reported as greater than 0.01%. In addition, the “LC50 CL” value in test [3] worked out at 0.024%.
Turning to `CCC(=Nc1cccc(Cl)c1Cl)OCc1cccc(Oc2ccccc2)c1` [Compound 28], the “LC50 HF” value in test [1] is greater than 100 µg. For the same molecule, the “LC50 TBW E” value in test [2] is on record as greater than 0.1%. Also, the “LC50 CL” value in test [3] is 0.009%.
For `CC(C)C(=Nc1ccc(C(C)(C)C)cc1)OCc1cccc(Oc2ccccc2)n1` [Compound 496], in that order: greater than 100 µg, greater than 0.1% and 0.006%.
`CC(C)C(=Nc1ccc(Cl)c(Cl)c1)OCc1cccc(Oc2cccc(F)c2)c1` [Compound 40]: the “LC50 HF” value in test [1] came to 36 µg. For the same molecule, the “LC50 TBW E” value in test [2] came out at 0.08%. For the same molecule, the “LC50 CL” value in test [3] is recorded as 0.0025%.
Regarding `CCCC(=Nc1ccc(OC)cc1)OCc1cccc(Oc2ccccc2)c1` [Compound 184], the “LC50 HF” value in test [1] was 61 µg. The “LC50 TBW E” value in test [2] is reported as greater than 0.1%. The “LC50 CL” value in test [3] stood at 0.024%.
For `CC(C)C(=Nc1ccc(C2CCCCC2)cc1)OCc1cccc(Oc2ccc(F)cc2)c1` [Compound 280], the “LC50 HF” value in test [1] was greater than 100 µg. In test [2], the “LC50 TBW E” value is greater than 0.1%. In addition, the “LC50 CL” value in test [3] is 0.024%.
For `CC(C)(F)C(=Nc1ccc(F)c(F)c1)OCc1cccc(Oc2ccc(F)cc2)c1` [Compound 318] the same measures were 19 µg, greater than 0.1% and 0.0007%.
For `CC(C)C(=Nc1ccc(C#N)cc1)OCc1cccc(Oc2ccc(F)cc2)c1` [Compound 227], in that order: 10 µg, 0.1% and 0.0015%.
Regarding `COc1ccc(Oc2cccc(COC(=Nc3ccc(Cl)c(Cl)c3)C(C)C)c2)cc1` [Compound 223], in test [1], the “LC50 HF” value was determined as 43 µg. For the same molecule, in test [2], the “LC50 TBW E” value is greater than 0.1%. Besides, the “LC50 CL” value in test [3] was 0.008%.
For `CC(C)C(=Nc1ccc(F)c(Cl)c1)OCc1coc(Cc2ccccc2)c1` [Compound 474] the same measures were 8 µg, greater than 0.1% and 0.0012%.
For `Cc1cc(N=C(OCc2cccc(Oc3ccccc3)c2)C(C)C)ccc1F` [Compound 87], in that order: 5 µg, 0.03% and 0.004%.
Regarding `CC(C)C(=Nc1ccc2c(c1)OC(C)(C)O2)OCc1cccc(Oc2ccc(Cl)cc2)n1` [Compound 468], in test [1], the “LC50 HF” value was 50 µg. Moreover, the “LC50 TBW E” value in test [2] is recorded as greater than 0.1%. Also, the “LC50 CL” value in test [3] was greater than 0.1%.
As to `Fc1c(F)c(F)c(COC(=Nc2cccc(Cl)c2Cl)C(Cl)Cl)c(F)c1F` [Compound 454], the “LC50 HF” value in test [1] was greater than 100 µg. The “LC50 TBW E” value in test [2] is greater than 0.1%. Further, the “LC50 CL” value in test [3] came to 0.03%.
Take `CCC(CC)C(=Nc1ccc(C(C)C)cc1)OCc1cccc(Oc2ccccc2)c1` [Compound 321]: the “LC50 HF” value in test [1] was greater than 100 µg. In test [2], the “LC50 TBW E” value is recorded as greater than 0.1%. Moreover, in test [3], the “LC50 CL” value is given as 0.05%.
For `C=CCOc1cccc(COC(=Nc2ccc(Cl)c(Cl)c2)C(C)C)c1` [Compound 481], in that order: greater than 100 µg, greater than 0.1% and 0.015%.
In the case of `CC(C)C(=Nc1ccc(C#N)c(F)c1)OCc1cccc(Oc2ccccc2)c1` [Compound 233], the “LC50 HF” value in test [1] was 10 µg. Also, in test [2], the “LC50 TBW E” value worked out at 0.09%. Moreover, the “LC50 CL” value in test [3] was 0.0017%.
For the molecule `Cc1ccc(Oc2cccc(COC(=Nc3ccc(F)c(Cl)c3)C(C)C)n2)cc1` [Compound 494], the “LC50 HF” value in test [1] came out at 34 µg. In addition, the “LC50 TBW E” value in test [2] is listed as greater than 0.1%. Moreover, the “LC50 CL” value in test [3] is listed as 0.003%.
For `CC(C)C(=Nc1ccc(F)cc1)OCc1cccc(Oc2ccc(F)cc2F)c1` [Compound 206], in that order: 50 µg, greater than 0.1% and 0.0017%.
For the molecule `CC(C)C(=Nc1cccc(SC(F)(F)F)c1)OCc1cccc(Oc2ccc(F)cc2)c1` [Compound 272], in test [1], the “LC50 HF” value is greater than 100 µg. Moreover, in test [2], the “LC50 TBW E” value is greater than 0.1%. The “LC50 CL” value in test [3] came to 0.0024%.
Take `FC(F)(F)c1ccc(Oc2ccc(COC(=Nc3ccc(Cl)cc3)C(Cl)Cl)cc2)nc1` [Compound 453]: in test [1], the “LC50 HF” value is greater than 100 µg. Further, in test [3], the “LC50 CL” value was found to be 0.1%.
`CC(C)C(=Nc1cccc(Oc2ccccn2)c1)OCc1cccc(Oc2ccccc2)c1` [Compound 114]: the “LC50 HF” value in test [1] stood at 92 µg. Also, the “LC50 CL” value in test [3] was less than 0.1%.
For the molecule `CC(C)C(=Nc1ccc(F)c(Cl)c1)OC(F)c1cccc(Oc2ccc(F)cc2)c1` (centres unmarked) [Compound 502], the “LC50 HF” value in test [1] turned out to be 80 µg.
